Counter-ions that a name gives are not always drawn.
Target: ROCK2 (Homo sapiens, UniProt O75116)
Assay: ROCK2 kinase inhibition assay (LABCHIP 3000 Reader, FITC peptide substrate);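 further: rho kinase reaction read by separating phosphorylated from unphosphorylated peptide on chip, with inhibition of kinase activity computed per concentration across a dose-response series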
Conditions: not given

ROCK2, sequence (O75116 whole entry, species assumed): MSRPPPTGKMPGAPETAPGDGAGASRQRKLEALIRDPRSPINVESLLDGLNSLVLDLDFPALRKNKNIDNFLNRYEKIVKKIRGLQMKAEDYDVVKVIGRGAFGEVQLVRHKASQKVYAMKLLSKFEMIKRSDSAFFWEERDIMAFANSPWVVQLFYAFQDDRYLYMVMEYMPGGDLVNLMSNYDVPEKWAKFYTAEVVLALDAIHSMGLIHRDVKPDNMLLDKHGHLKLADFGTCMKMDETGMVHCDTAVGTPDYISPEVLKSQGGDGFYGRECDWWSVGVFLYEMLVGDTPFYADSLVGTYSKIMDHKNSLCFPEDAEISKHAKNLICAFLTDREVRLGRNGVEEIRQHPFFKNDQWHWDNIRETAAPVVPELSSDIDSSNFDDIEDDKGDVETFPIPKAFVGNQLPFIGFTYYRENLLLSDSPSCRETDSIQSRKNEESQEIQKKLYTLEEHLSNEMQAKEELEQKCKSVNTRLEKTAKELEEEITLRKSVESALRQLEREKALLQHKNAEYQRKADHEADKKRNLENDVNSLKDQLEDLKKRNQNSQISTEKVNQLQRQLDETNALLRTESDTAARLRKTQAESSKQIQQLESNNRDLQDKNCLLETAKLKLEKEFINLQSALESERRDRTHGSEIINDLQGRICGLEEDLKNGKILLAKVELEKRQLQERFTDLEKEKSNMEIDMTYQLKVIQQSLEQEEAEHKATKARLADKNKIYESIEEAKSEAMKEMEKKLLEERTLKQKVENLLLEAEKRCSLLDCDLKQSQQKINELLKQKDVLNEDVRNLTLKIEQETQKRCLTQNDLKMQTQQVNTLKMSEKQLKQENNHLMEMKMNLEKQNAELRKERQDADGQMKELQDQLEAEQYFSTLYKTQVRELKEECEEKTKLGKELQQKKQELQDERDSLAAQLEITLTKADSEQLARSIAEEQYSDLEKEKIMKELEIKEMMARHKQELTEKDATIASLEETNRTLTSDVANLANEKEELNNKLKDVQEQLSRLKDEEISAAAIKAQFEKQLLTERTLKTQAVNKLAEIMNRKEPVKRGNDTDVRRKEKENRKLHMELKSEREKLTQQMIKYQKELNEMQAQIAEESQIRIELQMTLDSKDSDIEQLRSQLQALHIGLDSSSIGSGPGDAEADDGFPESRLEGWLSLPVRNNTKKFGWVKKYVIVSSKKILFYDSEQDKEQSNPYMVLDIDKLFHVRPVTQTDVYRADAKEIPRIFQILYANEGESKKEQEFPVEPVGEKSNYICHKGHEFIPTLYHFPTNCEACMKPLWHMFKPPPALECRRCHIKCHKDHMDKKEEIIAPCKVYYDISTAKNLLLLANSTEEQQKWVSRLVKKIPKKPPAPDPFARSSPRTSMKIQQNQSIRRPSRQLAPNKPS

| IC50 | SMILES |
| --- | --- |
| 5 to 50 nM | CC(C)(C)c1ccnc(C(=O)N[C@H]2CC3(C2)C[C@H](Oc2ncccc2C(N)=O)C3)c1 (stereo partly drawn) [Example 110, 4-(tert-butyl)-N-((aR)-6-((3-carbamoylpyridin-2-yl)oxy)spiro[3.3]heptan-2-yl)picolinamide, bis-trifluoroacetate] |
| < 5 nM | [2H]C([2H])([2H])n1cc(-c2ccc3c(C(=O)N[C@H]4CC5(C4)C[C@H](Oc4ncccc4C(N)=O)C5)nn(C(F)F)c3c2)cn1 (stereo partly shown) [Example 111, 1-(difluoromethyl)-6-[1-(^2H3)methyl-1H-pyrazol-4-yl]-N-[(4s)-6-[(3-carbamoylpyridin-2-yl)oxy]spiro[3.3]heptan-2-yl]-1H-indazole-3-carboxamide, trifluoroacetate] |
| < 5 nM | NC(=O)c1cccnc1O[C@H]1CC2(C[C@H](NC(=O)c3nn(C(F)F)c4cc(-c5cnn(C(F)F)c5)ccc34)C2)C1 (stereo partly drawn) [Example 112, N-((aR)-6-((3-carbamoylpyridin-2-yl)oxy)spiro[3.3]heptan-2-yl)-1-(difluoromethyl)-6-(1-(difluoromethyl)-1H-pyrazol-4-yl)-1H-indazole-3-caroxamide, trifluoroacettate] |
| 250 to 2500 nM | CC(C)(C)c1cc(C(=O)N[C@H]2CC3(C2)C[C@H](Oc2ncccc2C(N)=O)C3)n(CC(F)F)n1 (stereo partly drawn) [Example 113, 2-((aR)-6-(3-(tert-butyl)-1-(2,2-difluoroethyl)-1H-pyrazole-5-carboxamido)spiro[3.3]heptan-2-yl)oxy) nicotinamide, trifluoroacetate] |
| 250 to 2500 nM | CC(C)(C)c1cc(C(=O)N[C@H]2CC3(C2)C[C@H](Oc2ncccc2C(N)=O)C3)n(CCC(F)(F)F)n1 (stereo partly drawn) [Example 114, 2-((aR)-6-(3-(tert-butyl)-1-(3,3,3-trifluoropropyl)-1H-pyrazole-5-carboxamido)spiro [3.3]heptan-2-yl)oxy) nicotinamide, trifluoroacetate] |
| 5 to 50 nM | NC(=O)c1cccnc1O[C@H]1CC2(C[C@H](NC(=O)c3cnn4c(CCC(F)(F)F)c(OCCC(F)(F)F)ccc34)C2)C1 (stereo partly drawn) [Example 115, N-((aR)-6-((3-carbamoylpyrdin-2-yl)oxy)spiro[3.3]heptan-2-yl)-6-(3,3,3-trifluoropropoxy)-7-(3,3,3-trifluoropropyl) pyrazolo[1,5-a]pyridine-3-carboxamdie, trifluoroacetate] |
| 5 to 50 nM | NC(=O)c1cccnc1O[C@H]1CC2(C[C@H](NC(=O)c3cnn4cc(CCC(F)(F)F)ccc34)C2)C1 (stereo partly drawn) [Example 118, N-((aR)-6-((3-carbamoylpyridin-2-yl)oxy)spiro[3.3]heptan-2-yl)-6-(3,3,3-trifluoropropyl) pyrazolo[1,5-a[pyridine-3-carboxamide, trifluoroacetate] |
| 5 to 50 nM | NC(=O)c1cccnc1O[C@H]1CC2(C[C@H](NC(=O)c3cnn4cc(OCCn5ccnc5)ccc34)C2)C1 (stereo partly drawn) [Example 120, 6-(2-(1H-imidazol-1-yl)ethoxy)-N-((aR)-6-((3-carbamoylpyridin-2-yl)oxy)spiro[3.3]heptan-2-yl)pyrazolo[1,5-a]pyridine-3-carboxamdie, trifluoroacetate] |
| 5 to 50 nM | COCCOCCOc1ccc2c(C(=O)N[C@H]3CC4(C3)C[C@H](Oc3ncccc3C(N)=O)C4)cnn2c1 (stereo partly drawn) [Example 121, N-((aR)-6-((3-carbamoylpyridin-2-yl)oxy)spiro[3.3]heptan-2-yl)-6-(2-(2-methoxyethoxy)ethoxy)pyrazolo [1,5-a]pyridine-3-carboxamide, trifluoroacetate] |
| 5 to 50 nM | NC(=O)c1cccnc1O[C@H]1CC2(C[C@H](NC(=O)c3cnn4cc(OCCCN5CCCC5=O)ccc34)C2)C1 (stereo partly drawn) [Example 124, N-((aR)-6-((3-carbamoylpyridin-2-yl)oxy)spiro[3.3]heptan-2-yl)-6-(3-(2-oxopyrrolidin-1-yl)propoxy) pyrazolo[1,5-a]pyridine-3-carboxamide, trifluoroacetate] |
| < 5 nM | NC(=O)c1cccnc1O[C@H]1CC2(C[C@H](NC(=O)c3cnn4cc(OCC[C@H]5COC(=O)N5)ccc34)C2)C1 (stereo partly drawn) [Example 126, N-((aR)-6-((3-carbamoylpyridin-2-yl)oxy)spiro[3.3]heptan-2-yl)-6-(2-((S)-2-oxoxazolidin-4-yl)ethoxy) pyrazolo[1,5-a]pyridine-3-carboxamdie, trifluoroacetate] |
| 5 to 50 nM | CC(C)(O)COc1ccc2c(C(=O)N[C@H]3CC4(C3)C[C@H](Oc3ncccc3C(N)=O)C4)nn(CC(C)(C)O)c2c1 (stereo partly drawn) [Example 127, N-((aR)-6-((3-carbamoylpyridin-2-yl)oxy)spiro[3.3]heptan-2-yl)-6-(2-hydroxy-2-methylpropoxy)-1-(2-hydroxy-2-methylpropyl)-1H-indazole-3-carboxamide, trifluoroacetate] |
| 5 to 50 nM | Cc1ncsc1CCOc1ccc2c(C(=O)N[C@H]3CC4(C3)C[C@H](Oc3ncccc3C(N)=O)C4)cnn2c1 (stereo partly drawn) [Example 128, N-((aR)-6-((3-carbamoylpyridin-2-yl)oxy)spiro[3.3]heptan-2-yl)-6-(2-(4-methylthiazol-5-yl)ethoxy) pyrazolo[1,5-a]pyridine-3-carboxamide, trifluoroacetate] |
| 250 to 2500 nM | NC(=O)c1cccnc1O[C@H]1CC2(C[C@H](NC(=O)c3csc(-c4ccccn4)n3)C2)C1 (stereo partly drawn) [Example 130, N-((aR)-6-((3-carbamoylpyridin-2-yl)oxy)spiro [3.3]heptan-2-yl)-2-(pyridin-2-yl)thiazole-4-carboxamide, bis-trifluoroacetate] |
| 5 to 50 nM | CN(c1ccccc1)S(=O)(=O)c1cccc(C(=O)N[C@H]2CC3(C2)C[C@H](Oc2ncccc2C(N)=O)C3)c1 (stereo partly drawn) [Example 131, 2-(((aR)-6-(3-(N-methyl-N-phenylsulfamoyl)benzamido)spiro[3.3]heptan-2-yl)oxy) nicotinamide, trifluoroacetate] |
| 50 to 250 nM | NC(=O)c1cccnc1O[C@H]1CC2(C[C@H](NC(=O)c3cccc(-n4cccn4)c3)C2)C1 (stereo partly drawn) [Example 134, 2-(((aR)-6-(3-(1H-pyrazol-1-yl)benzamido)spiro[3.3]heptan-2-yl)oxy) nicotinamide, trifluoroacetate] |
| 250 to 2500 nM | Cc1nc(-c2cccnc2)sc1C(=O)N[C@H]1CC2(C1)C[C@H](Oc1ncccc1C(N)=O)C2 (stereo partly drawn) [Example 135, N-((aR)-6-((3-carbamoylpyridin-2-yl)oxy)spiro [3.3]heptan-2-yl)-4-methyl-2-(pyridin-3-yl)thiazole-5-carboxamide, bis-trifluoroacetate] |
| 250 to 2500 nM | COc1ccc(-c2nc(C(=O)N[C@H]3CC4(C3)C[C@H](Oc3ncccc3C(N)=O)C4)cs2)cc1 (stereo partly drawn) [Example 136, N-((aR)-6-((3-carbamoylpyridin-2-yl)oxy)spiro[3.3]heptan-2-yl)-2-(4-methoxyphenyl) thiazole-4-carboxamide, trifluoroacetate] |
| 250 to 2500 nM | CC(C)NS(=O)(=O)c1ccccc1C(=O)N[C@H]1CC2(C1)C[C@H](Oc1ncccc1C(N)=O)C2 (stereo partly drawn) [Example 138, 2-(((aR)-6-(2-(N-isopropylsulfamoyl)benzamido)spiro[3.3]heptan-2-yl)oxy)nicotinamide, trifluoroacetate] |
| 250 to 2500 nM | NC(=O)c1cccnc1O[C@H]1CC2(C[C@H](NC(=O)c3c(C(F)(F)F)nc4ccc(Cl)cn34)C2)C1 (stereo partly drawn) [Example 139, N-((aR)-6-((3-carbamoylpyridin-2-yl)oxy)spiro[3.3]heptan-2-yl)-6-chloro-2-(trifluoromethyl) imidazo[1,2-a]pyridine-3-carboxamide, trifluoroacetate] |
| 250 to 2500 nM | NC(=O)c1cccnc1O[C@H]1CC2(C[C@H](NC(=O)c3ccccc3-c3nc4ccccc4[nH]3)C2)C1 (stereo partly drawn) [Example 140, 2-(((aR)-6-(2-(1H-benzo[d]imidazol-2-yl)benamido)spiro [3.3]heptan-2-yl)oxy) nicotinamide, trifluoroacetate] |
| 250 to 2500 nM | NC(=O)c1cccnc1O[C@H]1CC2(C[C@H](NC(=O)c3cccc(Cn4ccnc4)c3)C2)C1 (stereo partly drawn) [Example 141, 2-(((aR)-6-(3-((1H-imidazol-1-yl)methyl)benzamido)spiro[3.3]heptan-2-yl)oxy) nicotinamide, trifluoroacetate] |
| 50 to 250 nM | Cc1nnnn1-c1cccc(C(=O)N[C@H]2CC3(C2)C[C@H](Oc2ncccc2C(N)=O)C3)c1 (stereo partly drawn) [Example 142, 2-(((aR)-6-(3-(5-methyl-1H-tetrazol-1-yl)benzamido)spiro[3.3]heptan-2-yl)oxy) nicotinamide, trifluoroacetate] |

| SMILES | IC50 |
| --- | --- |
| NC(=O)c1cccnc1O[C@H]1CC2(C[C@H](NC(=O)c3cnn4cc(OCCCC(F)(F)F)ccc34)C2)C1 (stereo partly drawn) [Example 122, N-((aR)-6-((3-carbamoylpyridin-2-yl)oxy)spiro[3.3]heptan-2-yl)-6-(4,4,4-trifluorobutoxy) pyrazolo[1,5-a]pyridine-3-carboxamide, trifluoroacetate] | 5 to 50 nM |
| NC(=O)c1cccnc1O[C@H]1CC2(C[C@H](NC(=O)c3cnn4cc(OCCOC(F)(F)F)ccc34)C2)C1 (stereo partly drawn) [Example 125, N-((aR)-6-((3-carbamoylpyridin-2-yl)oxy)spiro[3.3]heptan-2-yl)-6-(2-(trifluoromethoxy)ethoxy) pyrazolo[1,5-a] pyridine-3-carboxamide, t rifluoroacetate] | 5 to 50 nM |
| NC(=O)c1cccnc1O[C@H]1CC2(C[C@H](NC(=O)c3nn(Cc4ccccc4)c4ccccc34)C2)C1 (stereo partly drawn) [Example 132, 1-benzyl-N-((aR)-6-((3-carbamoylpyridin-2-yl)oxy)spiro[3.3]heptan-2-yl)-1H-indazole-3-carboxamide, trifluoroacetate] | 5 to 50 nM |

Same assay, conditions: read-out: ROCK2 Activity (ROCK2 IC50); 5 μM ATP, 1.5 μM peptide substrate, pH 7.5

| SMILES | IC50 |
| --- | --- |
| NC(=O)c1cccnc1OC1CC2(CC(NC(=O)c3nn(CCC(F)(F)F)c4cc(OCCC(F)(F)F)ccc34)C2)C1 [Example 117, N-((aR)-6-((3-carbamoylpyridin-2-yl)oxy)spiro[3.3]heptan-2-yl)-6-(3,3,3-trifluoropropoxy)-1-(3,3,3-trifluoropropyl)-1H-indazole-3-carboxamide, trifluoroacetate] | 5 to 50 nM |
| CS(=O)(=O)c1cc(Br)cc(C(=O)NC2CC3(C2)CC(Oc2ncccc2C(N)=O)C3)c1 [Example 119, 2-((aR)-6-(3-bromo-5-(methylsulfonyl)benzamido)spiro[3.3]heptan-2-yl)oxy) nicotinamide, trifluoroacetate] | 5 to 50 nM |

— US10829501B2 (BRISTOL-MYERS SQUIBB COMPANY, priority 2016, dated 2020)
